# Measurements published in patent US8609610B2, “Inhibitors of the trypsin-like site of the proteasome and methods of use thereof” (Trustees of Dartmouth College, priority 2011, dated 2013).
# Experiments:
# [1] = target: T1, chymotrypsin-like site of 26S proteasomes (Oryctolagus cuniculus, UniProt G1T4Q9); test: Inhibition of purified 26S proteasomes, substrate Suc-LLVY-amc; assay type: biochemical, rabbit; conditions: >>30 no inhibition at 30 μM, >30 inhibition between 10 and 50% at 30 μM, read-out: IC50 for sites in 26S proteasomes: Chym-L
# T1 sequence (G1T4Q9 1-263): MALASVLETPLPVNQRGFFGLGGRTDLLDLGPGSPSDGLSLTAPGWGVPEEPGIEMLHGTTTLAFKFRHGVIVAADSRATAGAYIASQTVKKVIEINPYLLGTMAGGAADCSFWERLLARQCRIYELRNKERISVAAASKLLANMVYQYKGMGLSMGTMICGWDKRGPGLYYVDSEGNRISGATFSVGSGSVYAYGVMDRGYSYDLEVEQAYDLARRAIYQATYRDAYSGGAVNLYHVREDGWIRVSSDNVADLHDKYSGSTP
# [2] = system: peripheral blood mononuclear cells (PBMNCs); test: CELL TITER-GLO viability of PBMNCs; assay type: cell-based; conditions: cells from three donors
# Protocol: RPMI-8226 and NCI-H929 cells were cultured in RPMI-1640 supplemented with 10% fetal bovine serum, penicillin, streptomycin, and plasmocin in 5% CO2 humidified incubator. HEK-293T cells were cultured in DMEM containing 10% fetal calf serum, 10 units/mL penicillin, and 10 μg/mL streptomycin in a 7% CO2 humidified incubator. Viability of multiple myeloma cells was measured with ALAMAR BLUE mitochondrial dye conversion assay. Viability of peripheral blood mononuclear cells (PBMNCs) was measured using CELL TITER-GLO luminescent cell viability assay (Promega), which is based on quantification of ATP present in the cells. Caspase-3/7 activity was measured using APO-ONE 3/7 homogeneous assay (Promega).
# [3] = system: trypsin-like sites (β2) of proteasome in MM cells; test: PROTEASOMEGLO assay of proteasome inhibition in MM cells; assay type: cell-based
# [4] = system: β2 and β2i sites; test: MV-151 label-competition in extracts of RPMI-8226 MM cells; assay type: biochemical; conditions: extracts of RPMI-8226 cells, MV-151 probe
# Excerpt: Multiple myeloma cells express constitutive proteasomes and immunoproteasomes, and substrates used for the measurement of activity were cleaved by both. To determine whether there were any differences in inhibition of constitutive proteasomes or immunoproteasomes by NC-002, NC-012, and NC-022, the fluorescent activity-based probe MV-151 (Verdoes, et al. (2006) Chem. Biol. 13:1217-1226) was used in a label-competition experiment. Extracts of RPMI-8226 MM cells (which express more immunoproteasomes than NCI-H929 cells) were treated first with the NC inhibitors and then with the MV-151 probe. This was followed by fractionation on SDS-PAGE to separate proteasome subunits and imaging to reveal those subunits labeled by the probe (i.e., unmodified by the inhibitors).
smiles,measurement,setting,value
"Cc1c(O)cccc1C(=O)N[C@H](C(=O)N[C@@H](CO)C(=O)N[C@@H](CCCNC(=N)N)C(=O)[C@@]1(C)CO1)C(C)C [NC-022, HMB-Val-Ser-Arg-ek]",IC50,[1],1.7 µM
same,sensitization of PBMNCs to bortezomib and carfilzomib,[2],did not sensitize cells
same,difference in IC50 for trypsin-like activity between NCI-H929 and RPMI-8226,[3],25 fold
same,time to steady-state proteasome inhibition,[3]; RPMI-8226 cells,> 6 h
same,inhibition of constitutive (β2) versus immunoproteasome (β2i) trypsin-like sites,[4],equipotent inhibitors of the trypsin-like sites of constitutive and immunoproteasomes
